Laboratory results as given in ChEMBL document CHEMBL1201862, “PubChem BioAssay data set” (2004).
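Following 48 hours of exposure in 96-well plates, responses at five concentrations were used to interpolate endpoints linearly. Abbreviation: GI50, concentration required for 50% inhibition of growth.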 Active and inactive are the calls of the source. No stated cut-off is given here; in the data, active = GI50 up to about 1.1 µM and inactive = higher.

Experiments:
Test in all cases: inhibition of tumour cell growth, NCI panel, 48 h
NCI-H226 = tested on: NCI-H226
RPMI-8226 = tested on: RPMI-8226
A498 = tested on: A498
UO-31 = tested on: UO-31
A549 = tested on: A549
SNB-75 = tested on: SNB-75
SK-MEL-5 = tested on: SK-MEL-5
TK-10 = tested on: TK-10
ACHN = tested on: ACHN
CAKI-1 = tested on: CAKI-1
IGROV-1 = tested on: IGROV-1
M14 = tested on: M14
SNB-78 = tested on: SNB-78
NCI-H23 = tested on: NCI-H23
786-0 = tested on: 786-0
SK-MEL-2 = tested on: SK-MEL-2
KM-20L2 = tested on: KM-20L2
SNB-19 = tested on: SNB-19

Which GI50 (NCI-H226) does the source give for `CN[C@@H](C)[C@H](N)c1ccccc1` here?
Its GI50 is > 100 µM (inactive).

And the GI50 (RPMI-8226)?
Its GI50 is > 100 µM (inactive).

And the GI50 (A498)?
The GI50 was > 100 µM (inactive).

What about the GI50 (UO-31) of the same molecule?
Its GI50 is > 100 µM (inactive).

And the GI50 (A549)?
Its GI50 is > 100 µM (inactive).

What about the GI50 (SNB-75) of the same molecule?
The GI50 was > 100 µM (inactive).

What about the GI50 (SK-MEL-5) of the same molecule?
Its GI50 is > 100 µM (inactive).

What about the GI50 (TK-10) of the same molecule?
The GI50 was > 100 µM (inactive).

What about the GI50 (ACHN) of the same molecule?
The GI50 was > 100 µM (inactive).

And the GI50 (CAKI-1)?
Its GI50 is > 100 µM (inactive).

What about the GI50 (IGROV-1) of the same molecule?
The GI50 was > 100 µM (inactive).

What about the GI50 (M14) of the same molecule?
Its GI50 is > 100 µM (inactive).

What about the GI50 (SNB-78) of the same molecule?
Its GI50 is > 100 µM (inactive).

And the GI50 (NCI-H23)?
The GI50 was > 100 µM (inactive).

And the GI50 (786-0)?
The GI50 was > 100 µM (inactive).

What does the source list for `ClC1c2ccccc2C2(c3ccccc3)OOC1(c1ccccc1)O2` (stereo not drawn)?
GI50 (NCI-H226): 2.32 µM (inactive); GI50 (RPMI-8226): 0.716 µM (active); GI50 (A498): 2.39 µM (inactive); GI50 (UO-31): 1.69 µM (inactive); GI50 (SK-MEL-2): 1.94 µM (inactive); GI50 (A549): 1.86 µM (inactive); GI50 (SNB-75): 1.77 µM (inactive); GI50 (KM-20L2): 1.68 µM (inactive); GI50 (SK-MEL-5): 1.51 µM (inactive); GI50 (TK-10): 2.58 µM (inactive); GI50 (SNB-19): 1.7 µM (inactive); GI50 (ACHN): 1.55 µM (inactive); GI50 (CAKI-1): 2.37 µM (inactive); GI50 (M14): 1.45 µM (inactive); GI50 (SNB-78): 1.45 µM (inactive); GI50 (NCI-H23): 1.8 µM (inactive); GI50 (786-0): 1.61 µM (inactive)

For `O=c1[nH]c(=O)n(C2OC3COC2C3O)cc1F` (stereo not drawn), which GI50 (NCI-H226) is on record?
The GI50 was 41.5 µM (inactive).

What about the GI50 (RPMI-8226) of the same molecule?
Its GI50 is > 100 µM (inactive).

What about the GI50 (UO-31) of the same molecule?
The GI50 was > 100 µM (inactive).

And the GI50 (SK-MEL-2)?
The GI50 was > 100 µM (inactive).

What about the GI50 (A549) of the same molecule?
Its GI50 is > 100 µM (inactive).

What about the GI50 (SNB-75) of the same molecule?
The GI50 was > 100 µM (inactive).

And the GI50 (KM-20L2)?
Its GI50 is > 100 µM (inactive).

What about the GI50 (SK-MEL-5) of the same molecule?
Its GI50 is > 100 µM (inactive).

And the GI50 (TK-10)?
The GI50 was > 100 µM (inactive).

And the GI50 (SNB-19)?
Its GI50 is > 100 µM (inactive).

And the GI50 (ACHN)?
Its GI50 is > 100 µM (inactive).

What about the GI50 (CAKI-1) of the same molecule?
Its GI50 is > 100 µM (inactive).

What about the GI50 (M14) of the same molecule?
Its GI50 is > 100 µM (inactive).

What about the GI50 (SNB-78) of the same molecule?
Its GI50 is > 100 µM (inactive).

And the GI50 (NCI-H23)?
Its GI50 is > 100 µM (inactive).

What about the GI50 (786-0) of the same molecule?
The GI50 was > 100 µM (inactive).

With `Cc1c2cc[n+](COC(=O)c3ccccc3)cc2c(C)c2c1[nH]c1ccccc12` as the molecule, how does the GI50 (RPMI-8226) read?
Its GI50 is 0.569 µM (active).

And the GI50 (A498)?
The GI50 was 1.23 µM (inactive).

What about the GI50 (UO-31) of the same molecule?
The GI50 was 2.03 µM (inactive).

And the GI50 (A549)?
Its GI50 is 0.299 µM (active).

And the GI50 (KM-20L2)?
Its GI50 is 0.641 µM (active).

What about the GI50 (SK-MEL-5) of the same molecule?
Its GI50 is 1.36 µM (inactive).

And the GI50 (TK-10)?
The GI50 was 1.58 µM (inactive).

And the GI50 (SNB-19)?
Its GI50 is 0.778 µM (active).

And the GI50 (ACHN)?
The GI50 was 0.532 µM (active).

And the GI50 (CAKI-1)?
The GI50 was 1.4 µM (inactive).

And the GI50 (IGROV-1)?
The GI50 was 0.299 µM (active).

And the GI50 (SNB-78)?
Its GI50 is 1.32 µM (inactive).

What about the GI50 (NCI-H23) of the same molecule?
The GI50 was 0.849 µM (active).

And the GI50 (786-0)?
Its GI50 is 0.778 µM (active).

What does the source list for `CCCCCCCCCC(=O)OCC1OC(n2cc(F)c(=O)[nH]c2=O)C(N)C(OC(=O)CCCCCCCCC)C1O` (stereo not drawn)?
GI50 (RPMI-8226): 21.5 µM (inactive); GI50 (A498): 15.5 µM (inactive); GI50 (UO-31): 21.6 µM (inactive); GI50 (SK-MEL-2): 15.5 µM (inactive); GI50 (A549): 18 µM (inactive); GI50 (SNB-75): 16.3 µM (inactive); GI50 (KM-20L2): 19 µM (inactive); GI50 (SK-MEL-5): 22.6 µM (inactive); GI50 (TK-10): 36.1 µM (inactive); GI50 (SNB-19): 17.4 µM (inactive); GI50 (ACHN): 40.2 µM (inactive); GI50 (CAKI-1): 38.2 µM (inactive); GI50 (IGROV-1): > 100 µM (inactive); GI50 (M14): 19.2 µM (inactive); GI50 (SNB-78): 15.8 µM (inactive); GI50 (NCI-H23): 18.7 µM (inactive); GI50 (786-0): 18.4 µM (inactive)

Which GI50 (NCI-H226) does the source give for `COC(=O)CC1N/C(=N\C#N)N(CCc2c[nH]c3ccccc23)C1=O` (stereo not drawn) here?
The GI50 was > 100 µM (inactive).

And the GI50 (RPMI-8226)?
The GI50 was > 100 µM (inactive).

What about the GI50 (UO-31) of the same molecule?
The GI50 was 75.9 µM (inactive).

What about the GI50 (A549) of the same molecule?
The GI50 was > 100 µM (inactive).

And the GI50 (SNB-75)?
Its GI50 is > 100 µM (inactive).

What about the GI50 (KM-20L2) of the same molecule?
The GI50 was > 100 µM (inactive).

And the GI50 (SK-MEL-5)?
The GI50 was > 100 µM (inactive).

What about the GI50 (TK-10) of the same molecule?
The GI50 was > 100 µM (inactive).

And the GI50 (SNB-19)?
Its GI50 is > 100 µM (inactive).

And the GI50 (ACHN)?
Its GI50 is > 100 µM (inactive).

What about the GI50 (IGROV-1) of the same molecule?
Its GI50 is > 100 µM (inactive).

And the GI50 (M14)?
The GI50 was > 100 µM (inactive).

What about the GI50 (SNB-78) of the same molecule?
Its GI50 is > 100 µM (inactive).

What about the GI50 (NCI-H23) of the same molecule?
The GI50 was > 100 µM (inactive).

And the GI50 (786-0)?
Its GI50 is > 100 µM (inactive).

Which GI50 (NCI-H226) does the source give for `CCN(CC)C(=O)Cc1[nH][nH]c(=O)c1C(=O)N(CC)CC` here?
Its GI50 is > 100 µM (inactive).

What about the GI50 (RPMI-8226) of the same molecule?
Its GI50 is > 100 µM (inactive).

What about the GI50 (A498) of the same molecule?
Its GI50 is > 100 µM (inactive).

And the GI50 (UO-31)?
Its GI50 is > 100 µM (inactive).

What about the GI50 (SK-MEL-2) of the same molecule?
The GI50 was > 100 µM (inactive).

And the GI50 (A549)?
The GI50 was > 100 µM (inactive).

And the GI50 (SNB-75)?
The GI50 was > 100 µM (inactive).

And the GI50 (KM-20L2)?
Its GI50 is > 100 µM (inactive).

What about the GI50 (TK-10) of the same molecule?
Its GI50 is > 100 µM (inactive).

And the GI50 (SNB-19)?
Its GI50 is > 100 µM (inactive).

What about the GI50 (ACHN) of the same molecule?
The GI50 was > 100 µM (inactive).

What about the GI50 (IGROV-1) of the same molecule?
Its GI50 is > 100 µM (inactive).

What about the GI50 (M14) of the same molecule?
Its GI50 is > 100 µM (inactive).

What about the GI50 (SNB-78) of the same molecule?
The GI50 was > 100 µM (inactive).

What about the GI50 (NCI-H23) of the same molecule?
Its GI50 is > 100 µM (inactive).

And the GI50 (786-0)?
Its GI50 is > 100 µM (inactive).

For `CN(C)CCNC(=O)c1cccc2nc3ccc4cccnc4c3nc12`, which GI50 (NCI-H226) is on record?
Its GI50 is 0.319 µM (active).

And the GI50 (A498)?
Its GI50 is 0.214 µM (active).

And the GI50 (UO-31)?
Its GI50 is 0.205 µM (active).

What about the GI50 (SK-MEL-2) of the same molecule?
Its GI50 is 0.895 µM (active).

What about the GI50 (A549) of the same molecule?
The GI50 was 0.284 µM (active).

And the GI50 (SNB-75)?
Its GI50 is 0.507 µM (active).

What about the GI50 (SK-MEL-5) of the same molecule?
Its GI50 is 0.343 µM (active).

And the GI50 (TK-10)?
Its GI50 is 0.107 µM (active).

And the GI50 (SNB-19)?
Its GI50 is 0.362 µM (active).

What about the GI50 (ACHN) of the same molecule?
The GI50 was 0.126 µM (active).

And the GI50 (CAKI-1)?
Its GI50 is 0.224 µM (active).

And the GI50 (IGROV-1)?
Its GI50 is 0.359 µM (active).

And the GI50 (M14)?
The GI50 was 0.631 µM (active).

And the GI50 (SNB-78)?
Its GI50 is 0.482 µM (active).

And the GI50 (NCI-H23)?
Its GI50 is 0.294 µM (active).

What about the GI50 (786-0) of the same molecule?
The GI50 was 0.454 µM (active).

What does the source list for `CCO/C([O-])=C(/C=O)[n+]1c(C)n(C)c2ccccc21`?
GI50 (NCI-H226): > 100 µM (inactive); GI50 (RPMI-8226): > 100 µM (inactive); GI50 (A498): > 100 µM (inactive); GI50 (UO-31): > 100 µM (inactive); GI50 (SK-MEL-2): > 100 µM (inactive); GI50 (A549): > 100 µM (inactive); GI50 (SNB-75): > 100 µM (inactive); GI50 (KM-20L2): > 100 µM (inactive); GI50 (SK-MEL-5): > 100 µM (inactive); GI50 (TK-10): > 100 µM (inactive); GI50 (SNB-19): > 100 µM (inactive); GI50 (CAKI-1): > 100 µM (inactive); GI50 (IGROV-1): > 100 µM (inactive); GI50 (M14): > 100 µM (inactive); GI50 (SNB-78): > 100 µM (inactive); GI50 (NCI-H23): > 100 µM (inactive); GI50 (786-0): > 100 µM (inactive)
